This is an account of results in patent US7122335B1, “Compounds and methods to enhance rAAV transduction” (priority 1999, dated 2006).

Data set [1] is described as follows: Toxicity of proteasome inhibitors in mice, intra-tracheal and systemic (IV) delivery. Particulars: 10, 100 and 1000 fold higher doses than used in polarized airway cells. The data set is classed as in vivo. Here is the method: Long-term enhancement of rAAV transduction by proteasome inhibitor in vivo. To evaluate the potential utility of proteasome inhibitors for in vivo gene therapy, both the toxicity and efficacy of these agents for in vivo rAAV mediated gene transfer in the mouse lung was tested. To assess the toxicity of these proteasome inhibitors in mice, 10, 100, and 1000 fold higher effective doses of LLnL or Z-LLL were administered than used to induce gene transfer in polarized airway cells, using both intra-tracheal and systemic (IV) delivery. No toxicity was indicated by histologic evaluation of the lung and liver (data not shown) or was evidenced by the death of animals. To investigate whether these proteasome inhibitors could improve rAAV transduction in vivo, AV.LacZ (5×10^10 particles) was delivered either alone or in the presence of 400 μM Z-LLL by intranasal administration. Mouse lungs were harvested at 3, 10 and 150 days post-infection to evaluate short and long term effects. […] Targeted transgene expression was predominantly confined to the conducting airways, rather than in the parenchyma. Alveolar cells were rarely transduced. […] The range of transgene expression in distal and proximal airways was 0 to 4% and 5 to 18%, respectively.

The test system of data set [2] is primary human fibroblasts. The data set is classed as cell-based. Particulars: confluent fibroblasts, AV.GFP3ori MOI 1000, 96 hours post-infection; brefeldin A 10 μg/ml, vinblastine 22 μM, cytochalasin B 1 μM, NH4Cl 2 mM, chloroquine 20 μm, LLnL 400 μM, Z-LLL 4 μM. Here is the method: FIG. 6. Primary confluent fibroblasts were infected with AV.GFP3ori virus at an MOI=1000 particles/cell following treatment with brefeldin A (10 μg/ml), vinblastine (22 μM), cytochalasin B (1 μM), NH4Cl (2 mM), chloroquine (20 μm), LLnL (400 μM), and Z-LLL (4 μM), final concentration indicated in brackets. Cells were harvested at 96 hours post-infection and the transduction efficiency was compared to untreated rAAV infected cells by FACS analysis for GFP expression. To control for non-specific effects caused by toxicity of the compounds, the percentage of live cells was also assessed by the absence of propidium iodide incorporation.
80% confluent human primary fibroblasts were infected with AV.GFP3ori at an moi of 1000 DNA particles/cell. FIG. 16A depicts GFP transgene expression in the absence (left photographs) and presence of 40 μM LLnL (right photographs) at 96 hours post-infection. […] Top and bottom panels represent bright field and FITC-channel fluorescent photomicrographs, respectively. The mean (+/−SEM, N=3) percentage of cells transduced with rAAV, as measured by FACS sorting of GFP expressing cells, is presented in the bar graph of FIG. 16B. […] In this study, rAAV from infected cells was first immunoprecipitated with anti-VP1,2,3 (AAV-2 capsid) monoclonal antibody followed by Western blot detection of ubiquitin side chains using an anti-ubiquitin monoclonal antibody. […] Epithelia were infected with AV.GFP3ori (10,000 particles/cell) from the basolateral surface following treatment with ubiquitin ligase inhibitor dipeptides (0.2 mM H-Leu-Ala-OH and 0.2 mM H-His-Ala-OH).
Initial studies were performed in confluent primary human fibroblasts since dose titrations and toxicity could be quickly assessed. Selected compounds were used to treat fibroblast monolayers prior to rAAV infection. rAAV transduction was assessed at 96 hours post-infection by FACS analysis, and the percentage of dead cells was simultaneously assessed by incorporation of propidium iodide.
These tripeptides are structurally related to chloroquine but have different lipid solubility and specificity for cysteine proteases (Seglen, 1983). These molecules decrease endosomal degradation of molecules by a mechanism different than altering pH.
Transduction of polarized airway epithelial cells and primary human fibroblasts. rAAV infection of fully differentiated bronchial cells was performed as described in Duan et al. (1998). For infections from the apical surface of the airway cells, 5 μl rAAV was mixed with 50 μl of culture media and applied directly onto the apical compartment of Millicell inserts (MOI=10,000 particles/cell). During apical infection, the basolateral side of the Millicell was continuously bathed in culture media. Gene transfer to the basal side was performed by inverting Millicell inserts and applying viral vector to the bottom of the supporting filter membrane in a 50 μl volume for 2 hours. Subsequently, Millicell inserts were returned to the upright position, in the continued presence of the original viral inoculum plus an additional 450 μl of media. For both apical and basolateral infections, rAAV containing media was removed after 24 hours and replaced with either fresh culture media (for the basal side) or exposed to air (for the apical side). To test the effect of different agents on the efficiency of AAV transduction in polarized airway cells, 1 μl of each solution was mixed with AAV prior to infection of airway epithelia. Agents were usually presented during the 24 hours AAV infection period unless indicated otherwise.

Peptide text beside a SMILES is read from it. * marks the point of attachment. Cbz = O=C(OCc1ccccc1)*

As to `CC(C)C[C@@H](C=O)NC(=O)[C@H](CC(C)C)NC(=O)[C@H](CC(C)C)NC(=O)OCc1ccccc1` [Z-LLL, N-carbobenzoxyl-L-leucinyl-L-leucinyl-L-leucinal] (Cbz-Leu-Leu-Leu-aldehyde), the “toxicity (histology of lung and liver, death of animals)” value in data set [1] is recorded as “No toxicity”. Also, the “rAAV transduction (GFP expression) compared to untreated rAAV infected cells” value in data set [2] is reported as “significantly increased rAAV transduction”.

“N-acetyl-L-leucinyl-L-leucinal-L-norleucinal [LLnL]”: the “toxicity (histology of lung and liver, death of animals)” value in data set [1] was “No toxicity”. Besides, the “rAAV transduction (GFP expression) compared to untreated rAAV infected cells” value in data set [2] was “significantly increased rAAV transduction”.
